Data on two compounds can be found in ChEMBL document CHEMBL1141267, “Side-chain truncation of apicularen A by olefin cross-metathesis with ethylene” (J Nat Prod, 2007).

pIC50: −log10 of the molar value. The source made the active and inactive calls. No cut-off for these calls is given here.

In one assay the test system is L929. The experiment in a line: Cytotoxicity against mouse L929 cells. In kind it is functional, cell-based.
Assay [1] can be described thus: Inhibition of tobacco hornworm V-ATPase. Further details: species or system Manduca sexta.

For the compound `C=CC[C@H]1C[C@H]2C[C@H](O)C[C@H](Cc3cccc(O)c3C(=O)O1)O2`, the outcome in the assay with L929 was inactive.
As usually defined, the pIC50 is −log10 of the IC50, conventionally taken in molar units. A high value points to a small IC50. In assay [1], `CC/C=C\C=C/C(=O)N/C=C/C[C@H]1C[C@H]2C[C@H](O)C[C@H](Cc3cccc(O)c3C(=O)O1)O2` [APICULAREN A] gave a pIC50 of 7.70.
